Laboratory results as given in patent US11274106B2, “Topoisomerase inhibitors with antibacterial and anticancer activity” (THE BOARD OF TRUSTEES OF THE UNIVERSITY OF ILLINOIS, priority 2017, dated 2022).
Values after ≈ are worked out from the molar mass of the structure shown.

Key:
[1] = system: MDA-MB-231 triple negative breast cancer cells; experiment: Antiproliferative SRB assay, MDA-MB-231; type: cell-based; settings: SRB assay
Procedure: FIG. 1. […] Cell death measured by SRB assay after 72 hour of compound exposure (n≥3 biological replicates, error bars show SEM). IC50 values given as mean±SEM from ≥3 biological replicates.
To investigate the feasibility of developing a class of antitumor antibiotics based upon the DNM scaffold, the ability of the DNM to exert an antiproliferative effect against MDA-MB-231 breast cancer cells was evaluated.

BT-474 = experiment: Antiproliferative SRB assay, BT-474; type: cell-based; settings: FIG. 4b, 72 hour
Source text: Topoisomerase inhibitors such as DOX are used as single agent and in combination therapy to treat a wide-range of cancer types.

Top1 [2] = molecular target: T1, Top1 (Homo sapiens, UniProt P11387); experiment: Top1 degradation by Western blot, BT-474; type: cell-based; settings: 50 μM for 2, 4, and 6 hours, then 30-minute drug-free media
T1 sequence (P11387 1-765): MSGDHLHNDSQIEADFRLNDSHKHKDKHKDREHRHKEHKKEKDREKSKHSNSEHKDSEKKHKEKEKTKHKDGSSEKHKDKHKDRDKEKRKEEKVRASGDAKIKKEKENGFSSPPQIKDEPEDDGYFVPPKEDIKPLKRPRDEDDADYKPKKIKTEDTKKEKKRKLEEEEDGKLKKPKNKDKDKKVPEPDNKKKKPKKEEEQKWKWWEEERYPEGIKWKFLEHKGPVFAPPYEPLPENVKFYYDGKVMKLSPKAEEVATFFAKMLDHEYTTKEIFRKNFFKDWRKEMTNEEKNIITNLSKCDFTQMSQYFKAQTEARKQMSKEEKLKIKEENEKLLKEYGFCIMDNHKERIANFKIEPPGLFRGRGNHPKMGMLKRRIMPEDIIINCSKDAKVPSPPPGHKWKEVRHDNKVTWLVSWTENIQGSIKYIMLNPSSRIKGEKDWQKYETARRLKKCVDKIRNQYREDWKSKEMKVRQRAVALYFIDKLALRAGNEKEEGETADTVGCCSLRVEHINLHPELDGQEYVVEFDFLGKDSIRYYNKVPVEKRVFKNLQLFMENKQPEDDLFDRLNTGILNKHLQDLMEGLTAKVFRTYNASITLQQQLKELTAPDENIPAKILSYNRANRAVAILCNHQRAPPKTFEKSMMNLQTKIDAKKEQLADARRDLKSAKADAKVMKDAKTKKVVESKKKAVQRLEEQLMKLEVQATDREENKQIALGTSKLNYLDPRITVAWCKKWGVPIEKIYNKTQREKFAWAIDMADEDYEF
Procedure: (§1) FIG. 4. Level of Top1-degradation predicts cell line sensitivity. (a) Cells treated with 25 μM of compound for indicated times followed by a 30 minute incubation with drug-free media. Cells were lysed with RIPA and Top1 levels assessed by Western Blot. (b) Degradation of Top1 results in a right-ward shift in the dose-response curve. Effect is most pronounced in Top1-poisons (Ph-6DNM-NH3, CPT) than Top1 catalytic inhibitor (6DNM-Pyr). Cell death measured by SRB assay after 72 hour of compound exposure (n≥3 biological replicates, error bars show SEM).
(§2) This difference in mechanism of action between Ph-6DNM-NH3 and 6DNM-Pyr may provide an explanation of the differences in cell line sensitivities between the different DNM derivatives. […] This downregulation serves as a resistance mechanism and the level of Top1 degradation is correlated with reduced sensitivity to CPT. To determine if a similar mechanism is responsible for the reduced sensitivity to Ph-6DNM-NH3 and its derivatives in certain cell lines, the effects of Ph-6DNM-NH3 and 6DNM-Pyr were compared to that of CPT in […] and BT-474, two cancer cell lines known to be deficient and proficient in Top1 degradation, respectively. Cells were treated with 50 μM Ph-6DNM-NH3, 6DNM-Pyr, or CPT for 2, 4, and 6 hours. Following a 30-minute incubation with drug-free media to allow for the reversal of any Top1cc formed, cells were lysed and Top1 concentrations assessed by Western blot (FIG. 4a).

Top1 [3] = molecular target: T1, Top1; experiment: Top1 degradation by Western blot, MDA-MB-231; type: cell-based; set-up: dose or concentration left out as unconfirmed; settings: 4, and 6 hours, then 30-minute drug-free media
Procedure: as §1, §2

E. coli = experiment: Antibacterial MIC, microbroth dilution, E. coli; type: cell-based
Procedure: (§3) To investigate this possibility, the antibacterial effects of the DNM derivatives was assessed against strains of E. coli, S. aureus, and MRSA using the microbroth dilution method (Table 2).

S. aureus = experiment: Antibacterial MIC, microbroth dilution, S. aureus; type: cell-based
Procedure: as §3

MRSA = experiment: Antibacterial MIC, microbroth dilution, MRSA; type: cell-based, S. aureus; settings: Staphylococcus aureus, MRSA; microbroth dilution
Procedure: as §3

E. coli DNA Gyrase = E. coli DNA Gyrase (Escherichia coli, UniProt P0AES4+P0AES6); experiment: E. coli DNA Gyrase supercoiling assay; type: biochemical
Sequence of E. coli DNA Gyrase (P0AES4 whole entry, one chain of several): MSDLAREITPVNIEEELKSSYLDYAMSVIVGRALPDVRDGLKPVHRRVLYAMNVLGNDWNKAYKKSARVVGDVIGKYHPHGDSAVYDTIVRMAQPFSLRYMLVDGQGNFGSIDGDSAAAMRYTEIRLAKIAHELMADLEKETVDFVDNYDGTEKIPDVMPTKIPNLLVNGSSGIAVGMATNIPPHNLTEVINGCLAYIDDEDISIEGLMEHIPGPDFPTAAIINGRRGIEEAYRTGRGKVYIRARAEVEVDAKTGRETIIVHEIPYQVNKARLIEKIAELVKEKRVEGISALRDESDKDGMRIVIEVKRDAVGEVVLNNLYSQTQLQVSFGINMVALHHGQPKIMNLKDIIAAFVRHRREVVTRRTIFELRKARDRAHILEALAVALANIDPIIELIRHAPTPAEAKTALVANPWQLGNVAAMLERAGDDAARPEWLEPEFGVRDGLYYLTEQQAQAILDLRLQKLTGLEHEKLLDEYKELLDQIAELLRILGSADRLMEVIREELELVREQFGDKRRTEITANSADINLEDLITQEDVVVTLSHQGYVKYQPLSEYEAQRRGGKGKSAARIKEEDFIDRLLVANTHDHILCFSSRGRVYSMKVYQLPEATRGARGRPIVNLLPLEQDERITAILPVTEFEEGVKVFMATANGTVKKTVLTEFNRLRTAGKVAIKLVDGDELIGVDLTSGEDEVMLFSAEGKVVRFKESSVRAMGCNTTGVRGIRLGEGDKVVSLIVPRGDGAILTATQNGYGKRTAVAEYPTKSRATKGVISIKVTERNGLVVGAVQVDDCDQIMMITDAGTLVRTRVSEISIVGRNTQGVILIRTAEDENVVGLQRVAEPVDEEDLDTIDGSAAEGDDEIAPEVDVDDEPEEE
Source text: (§4) FIG. 8. In vitro inhibitory activity of 6DNM-NH3, Ph-6DNM-NH3 against E. coli DNA gyrase and TopoIV.
(§5) DNM and its derivatives exert their antibacterial effects through inhibition of the DNA Gyrase.

E. coli TopoIV = E. coli TopoIV (Escherichia coli, UniProt P0AFI2+P20083); experiment: E. coli TopoIV decatenation assay; type: biochemical
Sequence of E. coli TopoIV (P0AFI2 whole entry): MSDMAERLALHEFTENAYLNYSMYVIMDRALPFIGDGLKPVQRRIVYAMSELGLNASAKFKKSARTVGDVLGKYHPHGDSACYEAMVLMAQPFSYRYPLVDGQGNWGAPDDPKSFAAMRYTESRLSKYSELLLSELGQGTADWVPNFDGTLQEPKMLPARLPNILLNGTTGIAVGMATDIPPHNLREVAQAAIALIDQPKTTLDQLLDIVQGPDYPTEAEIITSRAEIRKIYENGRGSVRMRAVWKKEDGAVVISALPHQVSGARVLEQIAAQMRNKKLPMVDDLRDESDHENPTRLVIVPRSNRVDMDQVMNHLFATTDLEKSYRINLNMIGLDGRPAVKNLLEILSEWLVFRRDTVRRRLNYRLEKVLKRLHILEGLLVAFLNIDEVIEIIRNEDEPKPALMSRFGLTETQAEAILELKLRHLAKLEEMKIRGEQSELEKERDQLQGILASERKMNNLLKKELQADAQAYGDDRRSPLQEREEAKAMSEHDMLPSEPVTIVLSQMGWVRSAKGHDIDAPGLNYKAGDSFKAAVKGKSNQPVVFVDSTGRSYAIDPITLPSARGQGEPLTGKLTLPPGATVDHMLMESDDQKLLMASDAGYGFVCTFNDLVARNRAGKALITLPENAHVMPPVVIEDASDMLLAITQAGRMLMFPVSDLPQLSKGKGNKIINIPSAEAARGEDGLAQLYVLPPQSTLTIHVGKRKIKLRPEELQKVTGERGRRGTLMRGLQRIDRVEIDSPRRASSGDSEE
Sequence of E. coli TopoIV (P20083 whole entry): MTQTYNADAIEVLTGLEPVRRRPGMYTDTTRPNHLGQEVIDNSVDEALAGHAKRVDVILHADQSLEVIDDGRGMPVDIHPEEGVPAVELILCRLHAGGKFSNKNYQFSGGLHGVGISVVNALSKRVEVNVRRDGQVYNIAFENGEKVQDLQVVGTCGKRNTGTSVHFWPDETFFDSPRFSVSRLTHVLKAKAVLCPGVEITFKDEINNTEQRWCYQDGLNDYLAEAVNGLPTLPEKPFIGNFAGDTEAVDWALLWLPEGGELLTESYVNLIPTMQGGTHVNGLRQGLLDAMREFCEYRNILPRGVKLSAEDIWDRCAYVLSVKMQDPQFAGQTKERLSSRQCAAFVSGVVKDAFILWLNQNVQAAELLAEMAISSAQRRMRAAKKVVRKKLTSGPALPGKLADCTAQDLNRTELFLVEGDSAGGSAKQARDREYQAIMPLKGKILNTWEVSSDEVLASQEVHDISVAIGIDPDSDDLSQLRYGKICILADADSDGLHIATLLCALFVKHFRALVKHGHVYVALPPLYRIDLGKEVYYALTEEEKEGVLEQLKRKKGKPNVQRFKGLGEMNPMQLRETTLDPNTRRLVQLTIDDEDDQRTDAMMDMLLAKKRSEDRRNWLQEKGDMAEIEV
Source text: as §4, §5

Top2α = Top2α (Homo sapiens, UniProt P11388); experiment: Top2α kDNA decatenation assay; type: biochemical; settings: gel electrophoresis, FIG. 3a
Sequence of Top2α (P11388 whole entry): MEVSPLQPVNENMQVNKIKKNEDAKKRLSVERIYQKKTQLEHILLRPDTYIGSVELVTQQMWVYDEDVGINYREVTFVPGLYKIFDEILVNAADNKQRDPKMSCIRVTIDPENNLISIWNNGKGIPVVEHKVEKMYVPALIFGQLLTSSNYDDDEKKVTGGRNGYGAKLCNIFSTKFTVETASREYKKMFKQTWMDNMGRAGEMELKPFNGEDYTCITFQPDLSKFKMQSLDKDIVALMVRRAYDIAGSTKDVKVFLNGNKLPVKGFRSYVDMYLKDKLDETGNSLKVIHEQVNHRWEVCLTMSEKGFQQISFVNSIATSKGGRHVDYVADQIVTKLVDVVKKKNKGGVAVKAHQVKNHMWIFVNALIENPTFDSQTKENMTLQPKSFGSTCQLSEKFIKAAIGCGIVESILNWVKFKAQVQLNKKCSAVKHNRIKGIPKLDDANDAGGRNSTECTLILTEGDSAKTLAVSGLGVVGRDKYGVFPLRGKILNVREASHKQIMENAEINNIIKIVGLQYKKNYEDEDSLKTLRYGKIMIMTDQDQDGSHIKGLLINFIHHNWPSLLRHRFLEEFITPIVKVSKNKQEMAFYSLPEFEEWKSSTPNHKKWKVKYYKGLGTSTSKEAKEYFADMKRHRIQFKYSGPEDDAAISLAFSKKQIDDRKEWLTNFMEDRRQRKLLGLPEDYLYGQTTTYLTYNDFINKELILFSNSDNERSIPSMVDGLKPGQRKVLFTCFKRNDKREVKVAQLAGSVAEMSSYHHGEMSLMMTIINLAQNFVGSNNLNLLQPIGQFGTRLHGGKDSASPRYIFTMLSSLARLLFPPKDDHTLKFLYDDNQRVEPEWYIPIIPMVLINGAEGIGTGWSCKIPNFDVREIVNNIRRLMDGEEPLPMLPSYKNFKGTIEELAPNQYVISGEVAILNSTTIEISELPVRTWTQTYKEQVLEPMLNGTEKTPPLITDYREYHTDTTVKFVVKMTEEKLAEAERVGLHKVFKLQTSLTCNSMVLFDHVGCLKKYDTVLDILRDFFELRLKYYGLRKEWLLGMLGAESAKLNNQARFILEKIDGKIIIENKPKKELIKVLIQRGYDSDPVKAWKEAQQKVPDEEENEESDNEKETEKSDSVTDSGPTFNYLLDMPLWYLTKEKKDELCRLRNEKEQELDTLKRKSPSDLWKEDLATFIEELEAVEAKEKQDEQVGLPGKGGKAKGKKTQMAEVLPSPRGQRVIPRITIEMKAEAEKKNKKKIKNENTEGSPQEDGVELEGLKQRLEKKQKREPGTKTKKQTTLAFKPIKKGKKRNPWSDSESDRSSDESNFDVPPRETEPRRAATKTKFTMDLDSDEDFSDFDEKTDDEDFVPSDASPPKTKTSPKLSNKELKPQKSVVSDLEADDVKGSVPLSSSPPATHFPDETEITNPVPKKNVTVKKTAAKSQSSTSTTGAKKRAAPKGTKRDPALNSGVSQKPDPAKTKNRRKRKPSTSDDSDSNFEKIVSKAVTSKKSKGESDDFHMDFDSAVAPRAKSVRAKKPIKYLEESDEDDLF
Source text: (§6) FIG. 3. DNM derivatives are dual Top1/Top2 inhibitors with different modes of inhibition. (a) Inhibition of decatenating ability of Top2α with increasing concentrations of ETP, 6DNM-NH3, 6DNM-Pyr, and Ph-6DNM-NH3. K, kinetoplast DNA; OC, open circular; R, relaxed. (b) Inhibition of relaxing ability of Top1 with increasing concentrations of CPT, 6DNM-NH3, 6DNM-Pyr, and Ph-6DNM-NH3. R, relaxed; S, supercoiled. (c) Detection of Top2a-DNA using the ICE Assay. Genomic DNA ([…]) of H460 cells treated with drugs (50 μM, 30 min) was applied to nitrocellulose membrane and immunoblotted for Top2a. (d) Detection of Top1-DNA adducts using ICE Assay. Same procedure as (c) using 1 μg of DNA. (e) Inhibition of ETP-induced poisoning of Top2a. H460 cells treated with indicated concentrations of inhibitor for 30 min prior to treatment with ETP (50 μM). Detection of Top2α as in (c).
FIG. 9. Mechanism of action studies: Topoisomerases form transient covalent complexes with DNA to modify DNA topology. Ph6DNM-NH3 and 6DNM-NH3 inhibit bacterial DNA gyrase and human topoisomerase II in vitro.
The ability of Ph-6DNM-NH3, 6DNM-NH3, and 6DNM-Pyr to inhibit Top2α was assessed using a decatenation assay. In this assay, Top2α is incubated with kinetoplast DNA (kDNA), a large network of catenated minicircles and maxicircles of DNA. As Top2α decatenates the kDNA, it releases supercoiled and relaxed DNA minicircles that are easily separated from the kDNA by gel electrophoresis.

Top1 [4] = molecular target: T1, Top1; experiment: Top1 DNA relaxation assay (pBR322); type: biochemical; settings: supercoiled pBR322, FIG. 3b
Source text: as §6
To further investigate any mechanistic differences between these structurally related DNM analogues they were also evaluated against the other clinically-targeted mammalian topoisomerase, Top1, using a DNA relaxation assay in which purified Top1 relaxes supercoiled pBR322 and the two forms are separated by agarose gel electrophoresis.

Top2cc = molecular target: T2, Top2cc (Homo sapiens, UniProt P11388); experiment: ICE assay for Top2α-DNA complexes in H460 cells; type: cell-based
T2 construct: endogenous in cells; host or cells: H460
T2 sequence (P11388 whole entry): as above
Source text: as §6
(§7) The in vivo complex of enzyme (ICE) assay can be used to distinguish poisons from catalytic inhibitors. The ICE assay consists of isolating the genomic DNA of cells treated with small molecules in a manner the preserves covalent DNA-protein complexes and applying it to nitrocellulose membranes. Because topoisomerase poisons stabilize the cleavage complexes, DNA-protein complexes can be detected by immunoblotting for specific topoisomerases, whereas catalytic inhibitors produce no such result. To determine if DNM derivatives are acting as poisons or catalytic inhibitors, H460 human lung cells were exposed to 50 μM of the Top2 poison ETP, Ph-6DNM-NH3, 6DNM-NH3, and 6DNM-Pyr and assessed for their ability to stabilize Top2cc. […] In a similar fashion, next investigated was the mode of Top1 inhibition using the ICE assay (FIG. 3b).

Top1cc = molecular target: T3, Top1cc (Homo sapiens, UniProt P11387); experiment: ICE assay for Top1-DNA adducts in H460 cells; type: cell-based
T3 construct: endogenous in cells; host or cells: H460
T3 sequence (P11387 2-765 limits assumed): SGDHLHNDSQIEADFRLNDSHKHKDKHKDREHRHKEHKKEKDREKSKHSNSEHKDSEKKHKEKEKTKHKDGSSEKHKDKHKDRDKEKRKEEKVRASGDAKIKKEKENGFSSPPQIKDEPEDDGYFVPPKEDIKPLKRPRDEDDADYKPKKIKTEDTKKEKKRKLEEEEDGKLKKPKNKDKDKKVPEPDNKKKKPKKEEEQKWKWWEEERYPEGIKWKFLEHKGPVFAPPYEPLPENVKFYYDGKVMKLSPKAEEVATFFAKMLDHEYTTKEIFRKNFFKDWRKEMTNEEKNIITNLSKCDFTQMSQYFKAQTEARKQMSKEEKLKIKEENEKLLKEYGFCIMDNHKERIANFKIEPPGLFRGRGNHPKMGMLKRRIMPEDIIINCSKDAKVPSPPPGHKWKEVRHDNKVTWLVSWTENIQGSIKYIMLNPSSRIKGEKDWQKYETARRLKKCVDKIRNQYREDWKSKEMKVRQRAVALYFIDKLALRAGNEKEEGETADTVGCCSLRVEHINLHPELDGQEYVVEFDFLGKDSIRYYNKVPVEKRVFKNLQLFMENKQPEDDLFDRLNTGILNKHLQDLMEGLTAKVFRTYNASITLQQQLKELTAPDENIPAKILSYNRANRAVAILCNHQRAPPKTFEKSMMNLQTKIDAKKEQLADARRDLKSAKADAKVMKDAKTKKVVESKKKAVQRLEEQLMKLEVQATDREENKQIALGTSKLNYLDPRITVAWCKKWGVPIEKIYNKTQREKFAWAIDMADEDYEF
Source text: as §6, §7

| Structure (SMILES) | Antiproliferative effect against MDA-MB-231 cells ([1]; FIG. 1, 72 hour) | Effectiveness in BT-474 after Top1 degradation (BT-474) | Top1 levels by Western blot in BT-474 (Top1 [2]) | Top1 levels by Western blot in MDA-MB-231 (Top1 [3]) | IC50 ([1]; 72 hour compound exposure, mean ± SEM, read-out: MDA-MB-231 IC50) | E. coli MIC (E. coli) | S. aureus MIC (S. aureus) | MIC (MRSA) | Inhibition of purified E. coli DNA Gyrase (E. coli DNA Gyrase) | Inhibition of purified E. coli TopoIV (E. coli TopoIV) | Inhibition of decatenating function of Top2α (Top2α) | Inhibition of Top1 relaxation (Top1 [4]) | Accumulation of Top2cc (ICE assay) (Top2cc; 50 μM) | Effect on ETP-induced Top2cc (Top2cc; pre-treatment 30 minutes prior to ETP (50 μM)) | Accumulation of Top1cc (ICE assay) (Top1cc; H460 cells, 50 μM, 30 min) | Mode of topoisomerase inhibition (Top1cc; in vitro and cell culture experiments taken together) |
| --- | --- | --- | --- | --- | --- | --- | --- | --- | --- | --- | --- | --- | --- | --- | --- | --- |
| CC[C@@]1(O)C(=O)OCc2c1cc1n(c2=O)Cc2cc3ccccc3nc2-1 [CPT, camptothecin, reference compound] | sensitive | nearly complete resistance | time-dependent decrease in the levels of Top1 | minimal differences in Top1 relative to untreated cells |  |  |  |  |  |  |  |  |  |  |  |  |
| Cc1cc(=O)n(C)c2c3c4c(cc12)c(C)cc(=O)n4C(CN)CO3 (stereo not shown) [Compound 9] |  |  |  |  | 220 ± 20 nM | 0.5 µg/mL | 0.5 µg/mL | 0.03 µg/mL (≈ 0.0922 µM) | able to inhibit | able to inhibit | inhibit the decatenating function of Top2α in a dose-dependent manner | inhibit relaxation at submicromolar concentrations | only ETP treatment resulted in the accumulation of Top2cc | dose-dependent decrease in ETP-induced Top2cc | neither 6DNM-NH3 nor 6DNM-Pyr, leads to the accumulation of Top1cc | dual Top1/Top2α catalytic inhibitors |
